Measurements reported in patent US20260166128A1, “HUMAN AMYLIN ANALOG, AND DERIVATIVE THEREOF AND USE THEREOF” (priority 2022, published 2026).
Numbered stars: 1 amine (or outer) side, 2 acyl side, 3 side chain; on linkers, the order of the positions; unused ones are H or OH. Bridge positions count the residues as written; N and C are the ends. Square brackets hold non-standard residues; d marks the D form. Side chains are listed from the residue outwards. Peptide text beside a SMILES is read from it. * marks the point of attachment. C20 diacid = O=C(O)CCCCCCCCCCCCCCCCCCC(=O)*; γGlu = O=C(O)[C@H](CCC(=O)[*:2])N[*:1]; cisHyp = O=C(O)[C@@H]1C[C@H](O)CN1; Hyp = O=C(O)[C@@H]1C[C@@H](O)CN1; Dap = NC[C@H](N)C(=O)O

Biological target: T1, human amylin receptor (Homo sapiens, UniProt O60896+P30988)
T1 construct: host or cells: CHO-K1/Ga15/AMY3 cells, further stably transfected with a CRE-luciferase plasmid
T1 sequence (P30988 25-474): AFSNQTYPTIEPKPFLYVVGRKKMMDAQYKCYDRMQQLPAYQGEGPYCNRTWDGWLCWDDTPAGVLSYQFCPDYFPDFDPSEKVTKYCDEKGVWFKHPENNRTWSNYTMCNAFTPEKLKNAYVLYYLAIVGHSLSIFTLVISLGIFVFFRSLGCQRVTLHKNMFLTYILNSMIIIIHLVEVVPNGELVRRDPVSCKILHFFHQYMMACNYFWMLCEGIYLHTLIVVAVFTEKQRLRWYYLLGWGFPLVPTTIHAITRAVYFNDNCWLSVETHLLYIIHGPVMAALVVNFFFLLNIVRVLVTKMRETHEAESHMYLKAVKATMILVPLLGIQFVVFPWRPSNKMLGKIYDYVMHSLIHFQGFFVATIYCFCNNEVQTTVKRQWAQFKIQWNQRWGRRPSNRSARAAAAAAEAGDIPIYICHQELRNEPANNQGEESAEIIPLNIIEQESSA
T1 sequence (O60896 24-148 partner): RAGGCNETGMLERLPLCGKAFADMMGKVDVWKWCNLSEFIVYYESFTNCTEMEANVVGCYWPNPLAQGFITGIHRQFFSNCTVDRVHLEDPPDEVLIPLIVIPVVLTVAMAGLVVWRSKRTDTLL
Assay: Luciferase assay of amylin derivatives in amylin receptor/CRE-luc CHO cell line
Assay type: cell-based
Settings: CHO-K1/Ga15/AMY3 CRE-luc cells, 24 hours incubation, F12 medium containing 10% FBS; read-out: EC50
Protocol: The experiment was intended to detect the activity or efficacy of the amylin derivatives on a human amylin receptor in vitro by luciferase assay.
50 μL of growth medium (F12 medium containing 10% FBS) was added into each well of a white 96-well plate, and the stably transfected amylin/CRE-lue CHO cells were inoculated into the white 96-well plate at a density of about 20,000 cells/well for activity determination.

Row | Compound | EC50 [nM]
1 | CC[C@H](C)[C@H](NC(=O)[C@@H]1CCCN1C(=O)[C@H](CCCCNC(=O)CC[C@H](NC(=O)CCCCCCCCCCCCCCCCCCC(=O)O)C(=O)O)NC(=O)[C@H](CC(C)C)NC(=O)[C@H](CC(N)=O)NC(=O)[C@H](CC(N)=O)NC(=O)[C@H](CO)NC(=O)[C@H](CO)NC(=O)[C@H](Cc1c[nH]cn1)NC(=O)[C@H](CCCNC(=N)N)NC(=O)[C@H](CC(C)C)NC(=O)[C@H](Cc1ccccc1)NC(=O)[C@H](CCC(=O)O)NC(=O)[C@H](C)NC(=O)[C@H](CC(C)C)NC(=O)[C@H](CCCNC(=N)N)NC(=O)[C@H](CCC(N)=O)NC(=O)[C@@H](NC(=O)[C@H](C)NC(=O)[C@@H]1CSSC[C@H](NC(=O)[C@@H](N)CCCNC(=N)N)C(=O)N[C@@H](CC(N)=O)C(=O)N[C@@H]([C@@H](C)O)C(=O)N[C@@H](C)C(=O)N[C@@H]([C@@H](C)O)C(=O)N1)[C@@H](C)O)C(=O)N[C@@H](CC(C)C)C(=O)N1CCC[C@H]1C(=O)N1CCC[C@H]1C(=O)N[C@H](C(=O)N[C@@H](CC(N)=O)C(=O)N[C@H](C(=O)NCC(=O)N[C@@H](CO)C(=O)N[C@@H](CC(N)=O)C(=O)N[C@H](C(=O)N1C[C@@H](O)C[C@H]1C(N)=O)[C@@H](C)O)C(C)C)[C@@H](C)O [PD055] (H-RCNTATCATQRLAEFLRHSSNNLK([γGlu-C20 diacid])PILPPTNVGSNT[cisHyp]-NH2; disulfide 2-7) | 0.909
2 | CC[C@H](C)[C@H](NC(=O)[C@@H]1CCCN1C(=O)[C@H](CCCCNC(=O)CC[C@H](NC(=O)CCCCCCCCCCCCCCCCCCC(=O)O)C(=O)O)NC(=O)[C@H](CC(C)C)NC(=O)[C@H](CC(N)=O)NC(=O)[C@H](CC(N)=O)NC(=O)[C@H](CO)NC(=O)[C@H](CO)NC(=O)[C@H](Cc1c[nH]cn1)NC(=O)[C@H](CCCNC(=N)N)NC(=O)[C@H](CC(C)C)NC(=O)[C@H](Cc1ccccc1)NC(=O)[C@H](CC(=O)O)NC(=O)[C@H](C)NC(=O)[C@H](CC(C)C)NC(=O)[C@H](CCCNC(=N)N)NC(=O)[C@H](CCC(N)=O)NC(=O)[C@@H](NC(=O)[C@H](C)NC(=O)[C@@H]1CSSC[C@H](NC(=O)[C@@H](N)CCCNC(=N)N)C(=O)N[C@@H](CC(N)=O)C(=O)N[C@@H]([C@@H](C)O)C(=O)N[C@@H](C)C(=O)N[C@@H]([C@@H](C)O)C(=O)N1)[C@@H](C)O)C(=O)N[C@@H](CC(C)C)C(=O)N1CCC[C@H]1C(=O)N1CCC[C@H]1C(=O)N[C@H](C(=O)N[C@@H](CC(N)=O)C(=O)N[C@H](C(=O)NCC(=O)N[C@@H](CO)C(=O)N[C@@H](CC(N)=O)C(=O)N[C@H](C(=O)N1C[C@@H](O)C[C@H]1C(N)=O)[C@@H](C)O)C(C)C)[C@@H](C)O [PD056] (H-RCNTATCATQRLADFLRHSSNNLK([γGlu-C20 diacid])PILPPTNVGSNT[cisHyp]-NH2; disulfide 2-7) | 0.586
3 | CC[C@H](C)[C@H](NC(=O)[C@@H]1CCCN1C(=O)CNC(=O)[C@H](Cc1ccccc1)NC(=O)[C@H](CC(N)=O)NC(=O)[C@H](CC(N)=O)NC(=O)[C@H](CO)NC(=O)[C@H](CO)NC(=O)[C@H](Cc1c[nH]cn1)NC(=O)[C@H](CCCNC(=N)N)NC(=O)[C@H](CC(C)C)NC(=O)[C@H](Cc1ccccc1)NC(=O)[C@H](CC(=O)O)NC(=O)[C@H](C)NC(=O)[C@H](CC(C)C)NC(=O)[C@H](CCCNC(=N)N)NC(=O)[C@H](CCC(N)=O)NC(=O)[C@@H](NC(=O)[C@H](C)NC(=O)[C@@H]1CSSC[C@H](NC(=O)[C@@H](N)CCCCNC(=O)CC[C@H](NC(=O)CCCCCCCCCCCCCCCCCCC(=O)O)C(=O)O)C(=O)N[C@@H](CC(N)=O)C(=O)N[C@@H]([C@@H](C)O)C(=O)N[C@@H](C)C(=O)N[C@@H]([C@@H](C)O)C(=O)N1)[C@@H](C)O)C(=O)N[C@@H](CC(C)C)C(=O)N1CCC[C@H]1C(=O)N1CCC[C@H]1C(=O)N[C@H](C(=O)N[C@@H](CC(N)=O)C(=O)N[C@H](C(=O)NCC(=O)N[C@@H](CO)C(=O)N[C@@H](CC(N)=O)C(=O)N[C@H](C(=O)N1C[C@H](O)C[C@H]1C(N)=O)[C@@H](C)O)C(C)C)[C@@H](C)O [PD068] (H-K([γGlu-C20 diacid])CNTATCATQRLADFLRHSSNNFGPILPPTNVGSNT[Hyp]-NH2; disulfide 2-7) | 0.032
4 | CC[C@H](C)[C@H](NC(=O)[C@@H]1CCCN1C(=O)CNC(=O)[C@H](CC(C)C)NC(=O)[C@H](CC(N)=O)NC(=O)[C@H](CC(N)=O)NC(=O)[C@H](CO)NC(=O)[C@H](CO)NC(=O)[C@H](Cc1c[nH]cn1)NC(=O)[C@H](CCCNC(=N)N)NC(=O)[C@H](CC(C)C)NC(=O)[C@H](Cc1ccccc1)NC(=O)[C@H](CC(=O)O)NC(=O)[C@H](C)NC(=O)[C@H](CC(C)C)NC(=O)[C@H](CCCNC(=N)N)NC(=O)[C@H](CCC(N)=O)NC(=O)[C@@H](NC(=O)[C@H](C)NC(=O)[C@@H]1CSSC[C@H](NC(=O)[C@H](CCCCN)NC(=O)CC[C@H](NC(=O)CCCCCCCCCCCCCCCCCCC(=O)O)C(=O)O)C(=O)N[C@@H](CC(N)=O)C(=O)N[C@@H]([C@@H](C)O)C(=O)N[C@@H](C)C(=O)N[C@@H]([C@@H](C)O)C(=O)N1)[C@@H](C)O)C(=O)N[C@@H](CC(C)C)C(=O)N1CCC[C@H]1C(=O)N1CCC[C@H]1C(=O)N[C@H](C(=O)N[C@@H](CC(N)=O)C(=O)N[C@H](C(=O)NCC(=O)N[C@@H](CO)C(=O)N[C@@H](CC(N)=O)C(=O)N[C@H](C(=O)N1C[C@H](O)C[C@H]1C(N)=O)[C@@H](C)O)C(C)C)[C@@H](C)O [PD069] ({C20 diacid-γGlu}-KCNTATCATQRLADFLRHSSNNLGPILPPTNVGSNT[Hyp]-NH2; disulfide 2-7) | 0.039
5 | CC[C@H](C)[C@H](NC(=O)[C@@H]1CCCN1C(=O)[C@H](CCCCN)NC(=O)[C@H](CC(C)C)NC(=O)[C@H](CC(N)=O)NC(=O)[C@H](CC(N)=O)NC(=O)[C@H](CO)NC(=O)[C@H](CO)NC(=O)[C@H](Cc1c[nH]cn1)NC(=O)[C@H](CCCNC(=N)N)NC(=O)[C@H](CC(C)C)NC(=O)[C@H](Cc1ccccc1)NC(=O)[C@H](CC(=O)O)NC(=O)[C@H](C)NC(=O)[C@H](CC(C)C)NC(=O)[C@H](CCCNC(=N)N)NC(=O)[C@H](CCC(N)=O)NC(=O)[C@@H](NC(=O)[C@H](C)NC(=O)[C@@H]1CSSC[C@H](NC(=O)[C@H](CCCCN)NC(=O)CC[C@H](NC(=O)CCCCCCCCCCCCCCCCCCC(=O)O)C(=O)O)C(=O)N[C@@H](CC(N)=O)C(=O)N[C@@H]([C@@H](C)O)C(=O)N[C@@H](C)C(=O)N[C@@H]([C@@H](C)O)C(=O)N1)[C@@H](C)O)C(=O)N[C@@H](CC(C)C)C(=O)N1CCC[C@H]1C(=O)N1CCC[C@H]1C(=O)N[C@H](C(=O)N[C@@H](CC(N)=O)C(=O)N[C@H](C(=O)NCC(=O)N[C@@H](CO)C(=O)N[C@@H](CC(N)=O)C(=O)N[C@H](C(=O)N1C[C@H](O)C[C@H]1C(N)=O)[C@@H](C)O)C(C)C)[C@@H](C)O [PD071] ({C20 diacid-γGlu}-KCNTATCATQRLADFLRHSSNNLKPILPPTNVGSNT[Hyp]-NH2; disulfide 2-7 (inferred)) | 0.028
6 | CC[C@H](C)[C@H](NC(=O)[C@@H]1CCCN1C(=O)[C@H](CCCCN)NC(=O)[C@H](CC(C)C)NC(=O)[C@H](CC(N)=O)NC(=O)[C@H](CC(N)=O)NC(=O)[C@H](CO)NC(=O)[C@H](CO)NC(=O)[C@H](Cc1c[nH]cn1)NC(=O)[C@H](CCCNC(=N)N)NC(=O)[C@H](CC(C)C)NC(=O)[C@H](Cc1ccccc1)NC(=O)[C@H](CC(=O)O)NC(=O)[C@H](C)NC(=O)[C@H](CC(C)C)NC(=O)[C@H](CCCNC(=N)N)NC(=O)[C@H](CCC(N)=O)NC(=O)[C@@H](NC(=O)[C@H](C)NC(=O)[C@@H]1CSSC[C@H](NC(=O)[C@@H](N)CCCCNC(=O)CC[C@H](NC(=O)CCCCCCCCCCCCCCCCCCC(=O)O)C(=O)O)C(=O)N[C@@H](CC(N)=O)C(=O)N[C@@H]([C@@H](C)O)C(=O)N[C@@H](C)C(=O)N[C@@H]([C@@H](C)O)C(=O)N1)[C@@H](C)O)C(=O)N[C@@H](CC(C)C)C(=O)N1CCC[C@H]1C(=O)N1CCC[C@H]1C(=O)N[C@H](C(=O)N[C@@H](CC(N)=O)C(=O)N[C@H](C(=O)NCC(=O)N[C@@H](CO)C(=O)N[C@@H](CC(N)=O)C(=O)N[C@H](C(=O)N1C[C@H](O)C[C@H]1C(N)=O)[C@@H](C)O)C(C)C)[C@@H](C)O [PD072] (H-K([γGlu-C20 diacid])CNTATCATQRLADFLRHSSNNLKPILPPTNVGSNT[Hyp]-NH2; disulfide 2-7) | 0.027
7 | CC[C@H](C)[C@H](NC(=O)[C@@H]1CCCN1C(=O)[C@H](CCCCNC(=O)CC[C@H](NC(=O)CCCCCCCCCCCCCCCCCCC(=O)O)C(=O)O)NC(=O)[C@H](CC(C)C)NC(=O)[C@H](CC(N)=O)NC(=O)[C@H](CC(N)=O)NC(=O)[C@H](CO)NC(=O)[C@H](CO)NC(=O)[C@H](Cc1c[nH]cn1)NC(=O)[C@H](CCCNC(=N)N)NC(=O)[C@H](CC(C)C)NC(=O)[C@H](Cc1ccccc1)NC(=O)[C@H](CC(=O)O)NC(=O)[C@H](C)NC(=O)[C@H](CC(C)C)NC(=O)[C@H](CCCNC(=N)N)NC(=O)[C@H](CCC(N)=O)NC(=O)[C@@H](NC(=O)[C@H](C)NC(=O)[C@@H]1CSSC[C@H](NC(=O)[C@@H](N)CN)C(=O)N[C@@H](CC(N)=O)C(=O)N[C@@H]([C@@H](C)O)C(=O)N[C@@H](C)C(=O)N[C@@H]([C@@H](C)O)C(=O)N1)[C@@H](C)O)C(=O)N[C@@H](CC(C)C)C(=O)N1CCC[C@H]1C(=O)N1CCC[C@H]1C(=O)N[C@H](C(=O)N[C@@H](CC(N)=O)C(=O)N[C@H](C(=O)NCC(=O)N[C@@H](CO)C(=O)N[C@@H](CC(N)=O)C(=O)N[C@H](C(=O)N1C[C@H](O)C[C@H]1C(N)=O)[C@@H](C)O)C(C)C)[C@@H](C)O [PD073] (H-[Dap]CNTATCATQRLADFLRHSSNNLK([γGlu-C20 diacid])PILPPTNVGSNT[Hyp]-NH2; disulfide 2-7) | 0.063
